Source: PubChem BioAssay (NCI)
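Results reflect a 48-hour exposure of cells in 96-well plates to compound at five concentrations. Here, GI50 denotes the concentration required for 50% inhibition of growth. TGI marks complete inhibition of growth.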

What was measured:
Test in all cases: DTP human tumour cell line panel, 48 h
[1] = tested on: SF-539 CNS
[2] = tested on: UACC-257 melanoma
[3] = tested on: NCI-H23 lung
[4] = tested on: M14 melanoma
[5] = tested on: U251 CNS
[6] = tested on: OVCAR-5 ovarian
[7] = tested on: NCI-H226 lung
[8] = tested on: OVCAR-4 ovarian
[9] = tested on: DU-145 prostate
[10] = tested on: BT-549 breast

Row | Compound | GI50 [1] | TGI [1] | GI50 [2] | TGI [2] | GI50 [3] | TGI [3] | GI50 [4] | TGI [4] | GI50 [5] | TGI [5] | GI50 [6] | TGI [6] | GI50 [7] | TGI [7] | GI50 [8] | TGI [8] | TGI [9] | TGI [10] | GI50 [9] | GI50 [10]
1 | COc1cc2c(cc1C)NC(=O)/C2=C/c1ccccn1 | 0.024 µM | 2.47 µM | 13.1 µM | > 100 µM | 2.76 µM | 9.1 µM | 3.8 µM | > 100 µM | 2.92 µM | > 100 µM | 3.46 µM | 43.9 µM | 1.54 µM | 4.86 µM | 8.02 µM | > 100 µM | – | – | – | –
2 | O=C(O)C(/C=C/c1ccccc1)c1ccccc1 (stereo unspecified) | – | > 100 µM | – | > 100 µM | – | > 100 µM | – | > 100 µM | – | > 100 µM | – | > 100 µM | – | > 100 µM | – | – | > 100 µM | > 100 µM | – | –
3 | COc1cc(/C=C2/C(=O)N(C(=O)OCC(C)C)C(Cc3cc(OC)c(OC)c(C)c3OC)C(=O)N2Cc2ccccc2)c(OC)c(C)c1OC (stereo unspecified) | – | > 100 µM | – | > 100 µM | – | > 100 µM | – | > 100 µM | – | > 100 µM | – | > 100 µM | – | 9.7 µM | – | > 100 µM | – | – | – | –
4 | CC(C)C1CC[C@@H](C)C[C@@]1(O)CC(N)=O (stereo partly specified) | – | > 100 µM | – | > 100 µM | – | > 100 µM | – | > 100 µM | – | > 100 µM | – | > 100 µM | – | > 100 µM | – | > 100 µM | – | – | – | –
5 | O=C1Nc2ccccc2/C1=C/C(=O)c1coc2c1C(=O)c1ccccc1C2=O | > 100 µM | > 100 µM | > 100 µM | > 100 µM | > 100 µM | > 100 µM | > 100 µM | > 100 µM | > 100 µM | > 100 µM | > 100 µM | > 100 µM | > 100 µM | > 100 µM | > 100 µM | > 100 µM | > 100 µM | – | > 100 µM | –
6 | COc1ccc(Br)c(N/N=C2\CCCNC2=O)c1 | – | > 100 µM | – | > 100 µM | – | > 100 µM | – | > 100 µM | – | > 100 µM | – | > 100 µM | – | > 100 µM | – | > 100 µM | – | – | – | –
7 | COc1ccc2n[se]nc2c1 | – | 54.3 µM | – | > 100 µM | – | > 100 µM | – | > 100 µM | – | > 100 µM | – | > 100 µM | – | – | – | > 100 µM | – | – | – | –
8 | COC(=O)C1(C)CCC(c2ccc(C)cc2)=C(CC(=O)O)C1 (stereo unspecified) | – | > 100 µM | – | > 100 µM | – | > 100 µM | – | > 100 µM | – | > 100 µM | – | > 100 µM | – | – | – | > 100 µM | > 100 µM | > 100 µM | – | –
9 | O=C([CH-]C(=O)c1ccccc1)c1ccccc1.O=C([CH-]C(=O)c1ccccc1)c1ccccc1.[La+3].[OH-].[OH3+] | – | – | 16.3 µM | 46.5 µM | 12.2 µM | 48.6 µM | 16.8 µM | 37.6 µM | 15.2 µM | > 100 µM | 65.8 µM | > 100 µM | 1.67 µM | 17.7 µM | 26.1 µM | > 100 µM | – | – | – | –
10 | COC1CC(OS(=O)(=O)c2ccc([N+](=O)[O-])cc2)C(OC(=O)c2ccccc2)C(C)O1 (stereo unspecified) | – | > 100 µM | – | > 100 µM | – | > 100 µM | – | > 100 µM | – | > 100 µM | – | > 100 µM | – | – | – | > 100 µM | – | – | – | –
11 | CN(C)CC/C(=N\Nc1ccc([N+](=O)[O-])cc1)c1ccccc1 | – | 20.3 µM | – | 30.5 µM | – | 27.1 µM | – | 30.8 µM | – | 25.5 µM | – | 28.2 µM | – | – | – | 37.2 µM | – | – | – | –
12 | CC(C)(C)c1ccc(Oc2nccc(-c3c(-c4ccc(F)cc4)ncn3C3CCNCC3)n2)cc1 | 4.38 µM | 8.03 µM | – | – | – | – | 4.5 µM | 8.46 µM | 3.23 µM | 6.49 µM | 4.26 µM | 7.76 µM | – | – | 3.61 µM | 7.32 µM | 7.06 µM | 7.6 µM | 3.71 µM | 4.1 µM
13 | CCOc1ccc2c(c1)[n+]([O-])c(-c1ccc(Cl)cc1)c(N)[n+]2[O-] | – | > 100 µM | – | > 100 µM | – | > 100 µM | – | > 100 µM | – | > 100 µM | – | > 100 µM | – | > 100 µM | – | > 100 µM | – | – | – | –
14 | CN1C(=Nc2ccccc2)SC1=Nc1ccccc1 | – | > 100 µM | – | > 100 µM | – | > 100 µM | – | > 100 µM | – | > 100 µM | – | > 100 µM | – | > 100 µM | – | > 100 µM | – | – | – | –
15 | Oc1c(C(Nc2cccc3cccnc23)c2ccccc2)ccc2cccnc12 (stereo unspecified) | – | 39 µM | – | 35.9 µM | – | > 100 µM | – | – | – | – | – | > 100 µM | – | 9.79 µM | – | > 100 µM | – | – | – | –
16 | CCC(C)(CC(C)(C)C(=O)NCC(=O)NC(Cc1ccccc1)C(=O)NC(Cc1ccccc1)C(=O)NCC(=O)NC1CC(OC2CC(O)(C(=O)CO)Cc3c(O)c4c(c(O)c32)C(=O)c2c(OC)cccc2C4=O)OC(C)C1O)C(=O)NCC(C)O (stereo unspecified) | 53 µg/mL | > 150 µg/mL | > 150 µg/mL | > 150 µg/mL | 72.9 µg/mL | > 150 µg/mL | 120 µg/mL | > 150 µg/mL | 51.2 µg/mL | > 150 µg/mL | > 150 µg/mL | > 150 µg/mL | 41.4 µg/mL | > 150 µg/mL | > 150 µg/mL | > 150 µg/mL | > 150 µg/mL | – | 121 µg/mL | –
17 | CCOc1ccccc1N1C(=O)C(=O)C(c2nc3ccccc3o2)C(=O)C1=O | – | > 100 µM | – | > 100 µM | – | > 100 µM | – | > 100 µM | – | > 100 µM | – | > 100 µM | – | > 100 µM | – | 45.7 µM | – | – | – | –
18 | Cc1ccc(Nc2n[nH]c(=S)s2)cc1C | – | > 100 µM | – | > 100 µM | – | > 100 µM | – | > 100 µM | – | > 100 µM | – | > 100 µM | – | – | – | > 100 µM | > 100 µM | > 100 µM | – | –
19 | Cc1cc2c(cc1C)N(C(=O)CCl)CC(=O)N2 | 3.44 µM | 10.9 µM | 4.83 µM | 18.5 µM | 3.41 µM | 16.4 µM | 2.2 µM | 8.35 µM | 1.92 µM | 4.25 µM | 2.53 µM | 5.33 µM | – | – | 1.59 µM | 3.05 µM | 10.2 µM | 11.3 µM | 3.49 µM | 2.64 µM
20 | CP1(=O)CCCCC1 | – | > 100 µM | – | > 100 µM | – | > 100 µM | – | > 100 µM | – | > 100 µM | – | > 100 µM | – | > 100 µM | – | > 100 µM | – | – | – | –
21 | O=[N+]([O-])c1cc(C(F)(F)F)cc([N+](=O)[O-])c1CCl | – | 9.23 µM | – | 10.2 µM | – | 5.7 µM | – | 1.59 µM | – | 14.2 µM | – | 10.1 µM | – | 3.11 µM | – | 3.69 µM | – | – | – | –
